Assay results published in publication PMC7932537, “Quantitative profiling of protease specificity” (PLoS Computational Biology, 2021).

Key:
MMP-2 [1] = assay: Substrate phage display with NGS: relative probability (RP) of P3-P1' tetramer clusters; assay type: biochemical, human; details: MMP2;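 note: ratio of tetramer probability after protease selection to that in naive phage library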
MMP-9 = MMP-9 (Homo sapiens, UniProt P14780); assay: K(obs) of individual phage substrates (set of 1369); assay type: biochemical; details: MMP9
Sequence of MMP-9 (P14780 94-707): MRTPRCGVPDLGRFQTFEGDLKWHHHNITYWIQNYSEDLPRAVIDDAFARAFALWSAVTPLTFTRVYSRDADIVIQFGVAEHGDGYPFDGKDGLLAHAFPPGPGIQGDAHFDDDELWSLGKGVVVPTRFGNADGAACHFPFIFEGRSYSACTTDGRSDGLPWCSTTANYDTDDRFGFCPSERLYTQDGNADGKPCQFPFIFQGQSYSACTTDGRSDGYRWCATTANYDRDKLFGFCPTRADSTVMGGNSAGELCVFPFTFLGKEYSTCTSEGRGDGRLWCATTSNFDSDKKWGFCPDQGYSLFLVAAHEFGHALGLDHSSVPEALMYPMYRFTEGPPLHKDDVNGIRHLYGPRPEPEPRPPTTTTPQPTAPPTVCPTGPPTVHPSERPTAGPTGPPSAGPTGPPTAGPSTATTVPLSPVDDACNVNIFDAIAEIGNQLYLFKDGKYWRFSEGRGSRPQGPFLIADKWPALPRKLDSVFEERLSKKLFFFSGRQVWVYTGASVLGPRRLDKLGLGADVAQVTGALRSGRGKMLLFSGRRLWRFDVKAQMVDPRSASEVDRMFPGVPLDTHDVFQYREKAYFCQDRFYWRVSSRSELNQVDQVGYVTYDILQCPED

MMP-2 [2] = target: T1, MMP-2 (Homo sapiens, UniProt P08253); assay: as above; assay type: biochemical; details: MMP2
T1 sequence (P08253 110-660): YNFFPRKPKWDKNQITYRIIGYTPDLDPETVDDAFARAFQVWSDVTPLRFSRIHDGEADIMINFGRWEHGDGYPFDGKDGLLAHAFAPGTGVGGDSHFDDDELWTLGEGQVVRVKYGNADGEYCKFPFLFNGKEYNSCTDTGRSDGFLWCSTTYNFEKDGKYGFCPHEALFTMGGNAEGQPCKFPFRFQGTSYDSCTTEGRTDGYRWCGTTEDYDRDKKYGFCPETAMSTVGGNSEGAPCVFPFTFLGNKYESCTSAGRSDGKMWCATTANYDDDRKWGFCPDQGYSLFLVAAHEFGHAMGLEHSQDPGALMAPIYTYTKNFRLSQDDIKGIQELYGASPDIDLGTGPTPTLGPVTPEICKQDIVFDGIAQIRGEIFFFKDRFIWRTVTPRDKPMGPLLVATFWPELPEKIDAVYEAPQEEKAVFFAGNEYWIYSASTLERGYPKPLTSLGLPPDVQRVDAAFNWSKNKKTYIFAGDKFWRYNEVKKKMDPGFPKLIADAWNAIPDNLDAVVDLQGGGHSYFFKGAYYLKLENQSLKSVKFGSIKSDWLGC

[3] = RP of the P3-P1' tetramer contained in the substrate
[4] = individual phage substrate of the set of 1369 peptides, dash in the sequence marks the cleavage position
[5] = individual phage substrate of the set of 1369 peptides, cleavage position marked by '-'
[6] = RP of the P3-P1' tetramer contained in the substrate (substrate phage display with NGS)
[7] = individual phage substrates, set of 1369 peptides, hyphen in sequence marks cleavage position
[8] = individual phage substrates, set of 1369 peptides, cleavage position marked by hyphen in sequence

Substance	Kobs (MMP-9; [4]) [M⁻¹ s⁻¹]	Kobs (MMP-2 [2]; [5]) [M⁻¹ s⁻¹]	Kobs (MMP-9; [7]) [M⁻¹ s⁻¹]	Kobs (MMP-2 [2]; [8]) [M⁻¹ s⁻¹]	relative probability (RP) (MMP-2 [1]; [3])	relative probability (RP) (MMP-2 [1]; [6])
NTPNW-LTASG			6131.32	10866.7		26.5667
VKPWA-LTASG	10866.7	5667.28			31.9211	
ASTLH-LTASG			56.119	0		2.471
FVVRA-LTASG	12792.1	9740.44			30.4312	
GTLRS-LITAS	1465.65	12792.1			15.1373	
ARPEF-LTASG	7015.91	8941.32			12.0159	
EIWLP-ITASG			142.481	951.362		0.6666
GAPMN-VVTAS	12792.1	5889.62			12.9651	
VMLRF-LTASG	8321.48	12792.1			10.7085	
FSQLA-MTASG			0	0		5.241
TIPFY-MTASG			9740.44	3964.21		8.184
VSSYW-LTASG			1981.53	951.362		0.9791
SGPMR-LVTTA			4205.91	1870.4		20.4124
GRAAW-LQTAS			1465.65	12792.1		28.6088
TMGMN-MTASG			517.582	142.481		0
SLVLN-MTASG			4613.14	3438.54		19.025
PAYFP-LTASG	0	0			0.1432	

Now from value to substance, other results behind:

Kobs (MMP-9; [4]) [M⁻¹ s⁻¹]	Kobs (MMP-2 [2]; [5]) [M⁻¹ s⁻¹]	Kobs (MMP-9; [7]) [M⁻¹ s⁻¹]	Kobs (MMP-2 [2]; [8]) [M⁻¹ s⁻¹]	Substance	relative probability (RP) (MMP-2 [1]; [3])	relative probability (RP) (MMP-2 [1]; [6])
6688.74	9740.44			KSPVF-LTASG	21.7568	
12792.1	12792.1			SGPRA-LKGTA	35.2345	
		171.876	1112.44	SGWSG-MMATA		18.3143
4763.33	3964.21			GHAYH-LTASG	15.3364	
2837.92	9740.44			GEVRF-LRTAS	15.0438	
		0	9740.44	GWVSY-LKTAS		20.2936
0	8941.32			VIYGN-LTASG	24.0019	
3536.02	2996.69			SGAHG-ILSTA	8.881	
		12792.1	12792.1	GLPYA-LYTAS		33.2554
		726.013	1154.21	EQAWY-LTASG		0.09636
8941.32	9740.44			GQPRS-WRTAS	32.796	
		451.441	874.197	GSFRG-LRTAS		7.475
12792.1	5667.28			RLPWS-LTASG	28.5684	
12792.1	12792.1			REPLT-LTASG	24.2603	
		0	0	SRYLP-MTASG		0.4306
		10866.7	10866.7	SPPLA-LTASG		34.4921
		762.325	386.839	SGLRH-LSNTA		22.7972
0	1327.88			TVTQN-LTASG	7.238	
